Laboratory results published in ChEMBL document CHEMBL1139835, “Novel quinolizidinyl derivatives as antiarrhythmic agents” (J Med Chem, 2007).

What was measured:
[1] = Negative inotropic activity assessed as decrease in developed tension in isolated guinea pig left atrium at 1 uM relative to control; type: functional, Cavia porcellus, Cardiac atrium; design: scale not given: the % may be the effect or the level left
[2] = Activity against alternating current-induced arrhythmia in guinea pig left atrium; type: functional, tissue-based; conditions: Cavia porcellus, Cardiac atrium
[3] = Negative chronotropic activity assessed as decrease in atrial rate in isolated guinea pig right atrium at 50 uM relative to control; type: functional, Cavia porcellus, Cardiac atrium; design: scale not given: the % may be the effect or the level left
[4] = Activity against alternating current-induced arrhythmia in guinea pig left atrium at 50 uM; type: functional, Cavia porcellus, Cardiac atrium
[5] = test system: Aorta; test: Inhibition of calcium-induced contraction of potassium ion depolarized guinea pig aortic strips at 50 uM; type: functional; conditions: Cavia porcellus
[6] = Negative inotropic activity assessed as decrease in developed tension in isolated guinea pig left atrium; type: functional, tissue-based; conditions: Cavia porcellus, Cardiac atrium
[7] = tissue or blood; conditions: Cavia porcellus, Cardiac atrium
[8] = test system: Aorta; test: Inhibition of calcium-induced contraction of potassium ion depolarized guinea pig aortic strips at 100 uM; type: functional; conditions: Cavia porcellus
[9] = Negative inotropic activity assessed as decrease in developed tension in isolated guinea pig left atrium at 50 uM relative to control; type: functional, Cavia porcellus, Cardiac atrium; design: scale not given: the % may be the effect or the level left
[10] = Negative inotropic activity assessed as decrease in developed tension in isolated guinea pig left atrium at 100 uM relative to control; type: functional, Cavia porcellus, Cardiac atrium; design: scale not given: the % may be the effect or the level left
[11] = test system: Heart; test: Intraventricular conduction time in spontaneously beating Langendorff-perfused guinea pig heart at 10 nM; type: functional, Cavia porcellus
[12] = test system: Heart; test: Atrioventricular conduction time in spontaneously beating Langendorff-perfused guinea pig heart at 10 nM; type: functional, Cavia porcellus
[13] = test system: Heart; test: Atrioventricular conduction time in spontaneously beating Langendorff-perfused guinea pig heart at 0.1 uM; type: functional, Cavia porcellus
[14] = test system: Heart; test: Atrioventricular conduction time in spontaneously beating Langendorff-perfused guinea pig heart at 10 uM; type: functional, Cavia porcellus
[15] = test system: Heart; test: Ventricular action potential duration in spontaneously beating Langendorff-perfused guinea pig heart at 0.1 uM; type: functional, Cavia porcellus
[16] = test system: Heart; test: Intraventricular conduction time in spontaneously beating Langendorff-perfused guinea pig heart at 1 nM; type: functional, Cavia porcellus
[17] = test system: Heart; test: Intraventricular conduction time in spontaneously beating Langendorff-perfused guinea pig heart at 10 uM; type: functional, Cavia porcellus
[18] = test system: Heart; test: Intraventricular conduction time in spontaneously beating Langendorff-perfused guinea pig heart at 1 uM; type: functional, Cavia porcellus
[19] = test system: Heart; test: Heart rate in spontaneously beating Langendorff-perfused guinea pig heart at 1 uM; type: functional, Cavia porcellus; design: unit not given here
[20] = test system: Heart; test: Heart rate in spontaneously beating Langendorff-perfused guinea pig heart at 0.1uM; type: functional, Cavia porcellus; design: unit: beats/min
[21] = test system: Heart; test: Atrioventricular conduction time in spontaneously beating Langendorff-perfused guinea pig heart at 1 uM; type: functional, Cavia porcellus
[22] = test system: Heart; test: Intraventricular conduction time in spontaneously beating Langendorff-perfused guinea pig heart at 0.1 uM; type: functional, Cavia porcellus
[23] = test system: Heart; test: Atrioventricular conduction time in spontaneously beating Langendorff-perfused guinea pig heart at 1 nM; type: functional, Cavia porcellus
[24] = test system: Heart; test: Ventricular action potential duration in spontaneously beating Langendorff-perfused guinea pig heart at 1 uM; type: functional, Cavia porcellus
[25] = Activity against alternating current-induced arrhythmia in guinea pig left atrium at 100 uM; type: functional, Cavia porcellus, Cardiac atrium
[26] = Negative chronotropic activity assessed as decrease in atrial rate in isolated guinea pig right atrium at 100 uM relative to control; type: functional, Cavia porcellus, Cardiac atrium; design: scale not given: the % may be the effect or the level left
[27] = test system: Heart; test: Heart rate in spontaneously beating Langendorff-perfused guinea pig heart at 10 nM; type: functional, Cavia porcellus; design: unit not given here
[28] = test system: Heart; test: Ventricular action potential duration in spontaneously beating Langendorff-perfused guinea pig heart at 10 nM; type: functional, Cavia porcellus
[29] = test system: Heart; test: Ventricular action potential duration in spontaneously beating Langendorff-perfused guinea pig heart at 10 uM; type: functional, Cavia porcellus
[30] = test system: Heart; test: Heart rate in spontaneously beating Langendorff-perfused guinea pig heart at 10 uM; type: functional, Cavia porcellus; design: unit not given here
[31] = test system: Heart; test: Ventricular action potential duration in spontaneously beating Langendorff-perfused guinea pig heart at 1 nM; type: functional, Cavia porcellus
[32] = test system: Heart; test: Heart rate in spontaneously beating Langendorff-perfused guinea pig heart at 1 nM; type: functional, Cavia porcellus; design: unit not given here
[33] = Activity against alternating current-induced arrhythmia in guinea pig left atrium at 10 uM; type: functional, Cavia porcellus, Cardiac atrium
[34] = Negative inotropic activity assessed as decrease in developed tension in isolated guinea pig left atrium at 10 uM relative to control; type: functional, Cavia porcellus, Cardiac atrium; design: scale not given: the % may be the effect or the level left

SMILES: Cc1cc(C(=O)c2ccccc2)cc(C)c1OC[C@H]1CCCN2CCCC[C@H]12
- Activity [1]: 64%
- EC50 [2]: 19.9 µM
- Activity [3]: 75%
- Activity [4]: 104%
- inhibition at 50 µM [5]: 38%
- EC50 [6]: 0.16 µM
- EC50 [7]: 6.63 µM

SMILES: Cc1cc(C(=O)c2ccccc2)cc(C)c1OC[C@@H]1CCCN2CCCC[C@H]12
- inhibition at 100 µM [8]: 17%
- EC50 [2]: 6.75 µM
- Activity [9]: 94%
- Activity [3]: 41%
- Activity [4]: 64%
- EC50 [6]: 0.16 µM

SMILES: Cc1cc([N+](=O)[O-])cc(C)c1OC[C@@H]1CCCN2CCCC[C@H]12
- inhibition at 100 µM [8]: 16%
- Activity [3]: 66%
- Activity [4]: 27%
- EC50 [6]: 8.39 µM
- EC50 [7]: 23.7 µM
- Activity [10]: 91%

SMILES: C=C[C@H]1CN2CC[C@H]1C[C@@H]2[C@@H](O)c1ccnc2ccc(OC)cc12 [QUINIDINE]
- Activity [11]: 27 ms
- inhibition at 100 µM [8]: 30%
- EC50 [2]: 10.3 µM
- Activity [12]: 54 ms
- Activity [13]: 57 ms
- Activity [9]: 71%
- Activity [14]: 70 ms
- Activity [3]: 86%
- Activity [15]: 182 ms
- Activity [4]: 69%
- Activity [16]: 25 ms
- Activity [17]: 39 ms
- Activity [18]: 35 ms
- EC50 [6]: 3.38 µM
- Activity [19]: 123
- Activity [20]: 140
- Activity [21]: 60 ms
- Activity [22]: 31 ms
- Activity [23]: 53 ms
- EC50 [7]: 3.99 µM
- Activity [24]: 200 ms

SMILES: O=C(NC[C@@H]1CCCN2CCCC[C@H]12)c1ccc([N+](=O)[O-])cc1
- Activity [1]: 74%
- inhibition at 100 µM [8]: 18%
- Activity [25]: 18%
- EC50 [6]: 0.038 µM
- Activity [26]: 28%

SMILES: Cc1cc(NS(C)(=O)=O)cc(C)c1OC[C@H]1CCCN2CCCC[C@H]12
- Activity [1]: 64%
- inhibition at 100 µM [8]: 23%
- Activity [25]: 5%
- EC50 [6]: 0.14 µM
- Activity [26]: 34%

SMILES: CCCCc1oc2ccccc2c1C(=O)c1cc(I)c(OCCN(CC)CC)c(I)c1 [AMIODARONE]
- Activity [27]: 180
- Activity [11]: 20 ms
- Activity [28]: 161 ms
- inhibition at 100 µM [8]: 3%
- Activity [29]: 182 ms
- Activity [12]: 55 ms
- Activity [13]: 55 ms
- Activity [14]: 58 ms
- Activity [15]: 169 ms
- Activity [30]: 132
- Activity [16]: 20 ms
- Activity [17]: 24 ms
- Activity [25]: 10%
- Activity [18]: 22 ms
- Activity [19]: 164
- Activity [20]: 171
- Activity [21]: 56 ms
- Activity [31]: 161 ms
- Activity [26]: 72%
- Activity [32]: 187
- Activity [22]: 21 ms
- Activity [23]: 54 ms
- Activity [24]: 174 ms
- Activity [10]: 30%

SMILES: Cc1cc(N)cc(C)c1OC[C@H]1CCCN2CCCC[C@H]12
- Activity [33]: 38%
- Activity [34]: 91%
- inhibition at 50 µM [5]: 32%
- EC50 [6]: 0.63 µM
- Activity [26]: 44%

SMILES: Cc1cc(C(=O)c2ccccc2)cc(C)c1NC(=O)C[C@@H]1CCCN2CCCC[C@H]12
- inhibition at 100 µM [8]: 31%
- EC50 [2]: 4.81 µM
- Activity [9]: 88%
- Activity [3]: 70%
- Activity [4]: 55%
- EC50 [6]: 0.76 µM
- EC50 [7]: 3.98 µM

SMILES: CS(=O)(=O)Nc1ccc(C(=O)NC[C@@H]2CCCN3CCCC[C@H]23)cc1
- inhibition at 100 µM [8]: 1%
- Activity [9]: 92%
- Activity [25]: 34%
- EC50 [6]: 0.25 µM
- Activity [26]: 4%
